The record followed here is US20100197605A1, “THERAPEUTIC USE OF PEPTIDE YGLF AND COMBINATION WITH KVLPVPQ” (priority 2007, published 2010).

Where no end group is shown, it is not given here.

In test [1] the test system is HIV-1IIIB. Briefly: HIV-1 antiviral assay in CEM-SS cells (MTS readout).
Test [2] relates to HCMV strain AD169. Briefly: HCMV plaque formation assay in MRC-5 cells. Format: cell-based. The method, then:
Ganciclovir was used as positive control. […] The following day, peptides were added and tested in duplicates.

Test [3] concerns IL-4, spleen cells. Briefly: Th1/Th2 cytokine profiling assay, IL-4. The class given is cell-based, Balb/c mice. Conditions: 10 micrograms per ml; Ovalbumin restimulation; 72 hours.
Source text: (§1) The Balb/c mice (originated in 1923, it is a popular strain and is used in many different research disciplines. Also classified as an inbred from the production of 20 or more successive brother-sister matings, the Balb/c mouse is albino and small in size) were immunized on Days 1, 15, and 29 with Ovalbumin (Ovalbumin is the main protein found in egg white, commonly used to stimulate an immunological reaction in test animals) in PBS (5 micrograms/injection). On day 50, spleens of the mice were harvested (3 weeks after last boost with Ovalbumin). […] Thereafter, additional Ovalbumin was added to the cells at 10 micrograms/ml for in vitro restimulation of the cells. 72 hours later, cell supernatants were harvested and assayed using the Becton Dickinson Mouse Th1/Th2 Cytokine CBA Kit. This kit can be used to measure Interleukin-2 (IL-2), Interleukin-4 (IL-4), Interleukin-5 (IL-5), Interferon-γ (IFN-γ), and Tumor Necrosis Factor-α (TNF-α) protein levels in a single sample.
The test system of test [4] is IL-2, spleen cells. The test is described as follows: Th1/Th2 cytokine profiling assay, IL-2. Conditions: 10 micrograms per ml; Ovalbumin restimulation; 72 hours. Format: cell-based, Balb/c mice.
Source text: as §1
The subject of test [5] is RAW 264.7 cells. Briefly: Phagocytosis assay (Fluorescein-labeled Escherichia coli, flow cytometry). The settings on record: 10 micrograms per ml, single peptide, 30 min preincubation, 60 min ingestion.
Procedure: RAW 264.7 (Mouse leukaemic monocyte macrophage cell line) cells were obtained from ATCC and grown in RPMI 1640 medium containing 10% FBS. Cells were incubated in 12×75 mm tubes at 37° C. with test peptides—10 micrograms per ml—for 30 min prior to adding Fluorescein-labeled Escherichia coli bacteria as the agent to be ingested. After the cells were incubated for additional 60 min at 37° C. and allowed to ingest the Fluorescein-labeled Escherichia coli bacteria, cells were fixed with 1% paraformaldehyde. The samples were then analyzed by flow cytometry to determine the amount of phagocytosis as a function of brightness (the greater the phagocytic activity, the more fluorescence in the macrophage population). Data are reported as % positive and the mean fluorescence intensity (MFI) of positively stained cells.
The test system of test [6] is TNF-a, spleen cells. The test is described as follows: Th1/Th2 cytokine profiling assay, TNF-a. The class given is cell-based, Balb/c mice. Conditions: 10 micrograms per ml; Ovalbumin restimulation; 72 hours.
Source text: as §1
In test [7] the test system is IFNγ, spleen cells. Briefly: Th1/Th2 cytokine profiling assay, IFNγ. The class given is cell-based, Balb/c mice. Conditions: 10 micrograms per ml; Ovalbumin restimulation; 72 hours.
Source text: as §1
The test system of test [8] is IL-5, spleen cells. Briefly: Th1/Th2 cytokine profiling assay, IL-5. Conditions: 10 micrograms per ml; Ovalbumin restimulation; 72 hours. Format: cell-based, Balb/c mice.
Source text: as §1
In test [9] the test system is HUVEC. Briefly: Endothelial tube formation assay. The settings on record: 10 micrograms per ml, single peptide, 20 hours. The class given is cell-based, human. From the text:
Positive control was vehicle only.

For test [10], the system named is cyclic AMP generation in human peripheral blood mononuclear cells (PBMC). The test is described as follows: cAMP induction assay (ELISA). The class given is cell-based. Conditions: single peptide, 10 min at 37° C. Here is the method:
The cAMP kit was used as an immunoassay for the quantitative determination of cyclic AMP generation in human peripheral blood mononuclear cells (PBMC). PBMC were placed in 96-well microtitier plates (50 microliters of cells at 4×10^6/ml) and 50 microliters of medium alone (background control), forskolin (cAMP positive control; 50 micrograms per ml), or test peptides were added. Plates were mixed and incubated for 10 min at 37° C. and the cells were lysed by the addition of 50 microliters of 3% perchloric acid. NaOH was added to neutralize the samples. Plates were centrifuged for 15 min at 2500 rpm and the supernatants removed. The supernatants (diluted 2-fold in assay buffer) were then assayed for the levels of cAMP by ELISA.

Test [11] deals with hepatitis B virus (HBV) ayw strain. Briefly: HBV experimental assay system, HepG2-2.2.15, secreted HBV DNA by TaqMan PCR. The class given is cell-based. The settings on record: 10 micrograms per ml, six days, HBV DNA in supernatant. In general terms: Quantitative PCR measures a nucleic acid by following its amplification.
In test [12] the test system is Human Peripheral Blood Mononuclear Cells (PBMC), B cell proliferation. Briefly: B cell proliferation assay (SAC plus Interleukin-2 stimulated PBMC, 3H-thymidine). The class given is cell-based. The settings on record: 10 micrograms per ml; single peptide; SAC plus IL-2.
Procedure: Human Peripheral Blood Mononuclear Cells (PBMC) were obtained from normal human donors. The B cell proliferation was induced by stimulation of the cells with the B cell mitogen Staphylococcus aureus Cowans I (SAC) plus Interleukin-2, either in the absence (positive proliferation control), or in the presence of test peptides—10 micrograms per ml—to examine their effects on the B cell response. 10^5/well PBMC were plated in 96-well microtiter plates and assayed in duplicate with the peptides. […] At the end of incubation time, the plates were harvested and the cells counted by liquid scintillation for the incorporation of ^3H-thymidine as a measure of B cell proliferation.

As to `Cc1cn([C@H]2C[C@H](N=[N+]=[N-])[C@@H](CO)O2)c(=O)[nH]c1=O` [AZT], the “antiviral activity of positive control compounds” value in test [1] was “expected levels of antiviral activity”.

As for `Nc1nc(O)c2ncn(COC(CO)CO)c2n1` [Ganciclovir], the “antiviral activity of positive control compound” value in [2] was “expected levels of antiviral activity”.

In the case of `CC(C)(C)NC(=O)[C@@H]1CN(Cc2cccnc2)CCN1C[C@@H](O)C[C@@H](Cc1ccccc1)C(=O)N[C@H]1c2ccccc2C[C@H]1O` [indinavir], in test [1], the “antiviral activity of positive control compounds” value is reported as “expected levels of antiviral activity”.

As for “Lys-Val-Leu-Pro-Val-Pro-Gln-OH (KVLPVPQ-OH) [peptide 2]”, the “IL-4 spleen cells; TH2 response (% of control)” value in test [3] is on record as 94.9 % of control. In test [4], the “IL-2 spleen cells (% of control)” value is listed as 67.3 % of control. Also, the “increase of the phagocytic activity of murine macrophages” value in test [5] worked out at 20.0%. Further, the “TNF-a spleen cells; TH1 response (% of control)” value in [6] was 90.3 % of control. The “IFNγ spleen cells; TH1 response (% of control)” value in test [7] is listed as 41.5 % of control. In [8], the “IL-5 spleen cells; TH2 response (% of control)” value is given as 61.6 % of control. Also, in [9], the “inhibition of the tube formation of endothelial cells” value was determined as 15%. The “induction of cAMP formation in human peripheral blood cells” value in test [10] is reported as 4.1%.

“Tyr-Gly-Leu-Phe-OH (YGLF-OH) [peptide 1]”: the “IL-4 spleen cells; TH2 response (% of control)” value in test [3] was 0.0 % of control. Also, the “IL-2 spleen cells (% of control)” value in [4] is 0.0 % of control. In test [5], the “increase of the phagocytic activity of murine macrophages” value was “no inhibitory or activating effects”. Moreover, the “TNF-a spleen cells; TH1 response (% of control)” value in [6] is 78.9 % of control. Besides, the “inhibition of HBV replication as compared to the virus control infection” value in [11] is listed as “no effect”. The “inhibition of the proliferation of specifically stimulated human B-cells” value in test [12] amounted to 18%. Besides, in [7], the “IFNγ spleen cells; TH1 response (% of control)” value is 58.6 % of control. In addition, the “IL-5 spleen cells; TH2 response (% of control)” value in [8] was 51.1 % of control. The “inhibition of the tube formation of endothelial cells” value in test [9] was determined as 24%. Further, the “induction of cAMP formation in human peripheral blood cells” value in [10] came out at 5.1%.
